Like-named read-outs stand apart in the source and are kept apart here.
Legend:
[1] = target: T1, Src (Homo sapiens, UniProt P12931); assay: HTRF KinEASE-TK enzymatic assay, Src; type: biochemical; conditions: for Inhibition (1 μM, %) Src: compound at 1 μM, ATP at Km (16 µM), average of two independent experiments
T1 construct: purchased Carna Biosciences 08-173

[2] = target: T2, Fyn (Homo sapiens, UniProt P06241); assay: HTRF KinEASE-TK enzymatic assay, Fyn; type: biochemical; conditions: for Inhibition (1 μM, %) Fyn: compound at 1 μM; for Inhibition (1 μM, %) Fyn / IC50: ATP at Km (51.76 µM), average of two independent experiments
T2 construct: purchased Carna Biosciences 08-168

[3] = system: U87 GBM cell line; assay: Cell proliferation inhibition assay (MTT), U87; type: cell-based; conditions: 72 h, mean of at least three independent experiments, read-out: Antiproliferative activity IC50, U87
Protocol: (§1) GBM cell lines U87, U251, and T98G (purchased from the American Type Culture Collection Company, Manassas, VA) were cultured in Roswell Park Memorial Institute (RPMI) 1640 medium containing 10% foetal bovine serum (FBS) at 37 °C in 5% CO2 incubator. The U87-EGFRvIII cell line established with EGFRvIII, kindly provided by Professor Xingmei Zhang, and grown in DMEN supplement with 10% FBS and […] G418 (Sigma-Aldrich, St. Louis, MO) at 37 °C in 5% CO2 incubator. The anti-proliferative activities of the compounds to be tested against four glioblastoma cell lines were determined by standard MTT method. In order to determine the anti-proliferation effect of the tested compounds, four cell lines were inoculated at a density of 2 × 10^3 cells/ml and treated with compounds at a concentration of 1–100 µM. The cells were co-incubated with different concentrations of the tested drugs for 72 h, and 10% MTT solution diluted in 100 µL medium was added. After 4 h of incubation, the absorbance value of each hole was measured at […] with an enzyme-linked immunosorbent assay plate reader. All compounds were tested three times in each cell line.

[4] = system: U251 GBM cell line; assay: Cell proliferation inhibition assay (MTT), U251; type: cell-based; conditions: mean of at least three independent experiments, read-out: Antiproliferative activity IC50, U251
Protocol: as §1

[5] = system: T98G GBM cell line; assay: Cell proliferation inhibition assay (MTT), T98G; type: cell-based; conditions: 72 h, mean of at least three independent experiments, read-out: Antiproliferative activity IC50, T98G
Protocol: as §1

[6] = system: U87-EGFRvIII GBM cell line; assay: Cell proliferation inhibition assay (MTT), U87-EGFRvIII; type: cell-based; conditions: 72 h, mean of at least three independent experiments, read-out: Antiproliferative activity IC50, U87-EGFRvIII

T2 sequence (P06241 whole entry): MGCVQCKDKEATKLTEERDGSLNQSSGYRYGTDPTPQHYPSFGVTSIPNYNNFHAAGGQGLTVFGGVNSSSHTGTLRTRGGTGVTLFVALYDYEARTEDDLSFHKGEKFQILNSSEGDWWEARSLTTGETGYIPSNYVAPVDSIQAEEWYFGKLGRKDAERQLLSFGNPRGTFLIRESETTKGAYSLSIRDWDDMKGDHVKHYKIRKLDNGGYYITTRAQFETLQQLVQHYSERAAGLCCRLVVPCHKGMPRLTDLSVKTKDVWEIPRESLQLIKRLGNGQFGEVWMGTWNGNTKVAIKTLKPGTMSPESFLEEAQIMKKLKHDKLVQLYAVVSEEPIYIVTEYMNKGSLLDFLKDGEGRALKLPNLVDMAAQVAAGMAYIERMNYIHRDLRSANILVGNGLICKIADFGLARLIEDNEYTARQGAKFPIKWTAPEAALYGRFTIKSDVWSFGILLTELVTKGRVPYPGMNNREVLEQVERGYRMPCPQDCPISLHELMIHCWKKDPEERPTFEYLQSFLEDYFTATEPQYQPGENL

Compound	inhibition at 1 µM [1] [%]	inhibition at 1 µM [2] [%]	also measured
4-amino-1-(3-bromophenyl)-3-(4-chlorophenyl)-1H-imidazo[4,5-c]pyridin-2(3H)-one [Compound 1c]	–	–	Inhibition (1 μM, %) Src [1]: 68%; Inhibition (1 μM, %) Fyn [2]: 31%
4-amino-3-(4-chlorophenyl)-1-(m-tolyl)-1H-imidazo[4,5-c]pyridin-2(3H)-one [Compound 1b]	–	–	Inhibition (1 μM, %) Src [1]: 54%; Inhibition (1 μM, %) Fyn [2]: 11%
Nc1nccc2c1n(-c1ccc(Cl)cc1)c(=O)n2-c1ccccc1 [Compound 1a, 4-amino-3-(4-chlorophenyl)-1-phenyl-1H-imidazo[4,5-c]pyridin-2(3H)-one]	78	35	–
Nc1nccc2c1n(-c1ccc(Cl)cc1)c(=O)n2C1CCCC1 [Compound 1d, 4-amino-3-(4-chlorophenyl)-1-cyclopentyl-1,3-dihydro-2H-imidazo[4,5-c]pyridin-2-one]	96	90	IC50 [1]: 190 nM; IC50 [2]: 240 nM; IC50 [3]: 63.3 ± 10.5 µM; IC50 ([4]; Homo sapiens, U-251, 72 h): 33.3 ± 3.36 µM; IC50 ([5]; Homo sapiens, T98G): 20.6 ± 0.3 µM; IC50 [6]: 67.2 ± 3.2 µM
Nc1nccc2c1n(-c1ccc(Cl)cc1)c(=O)n2C1CCCCC1 [Compound 1e, 4-amino-3-(4-chlorophenyl)-1-cyclohexyl-1H-imidazo[4,5-c]pyridin-2(3H)-one]	88	76	IC50 [1]: 73 nM; IC50 [2]: 580 nM; IC50 [3]: 53.6 ± 2.51 µM; IC50 ([4]; Homo sapiens, U-251, 72 h): 36.1 ± 2.53 µM; IC50 ([5]; Homo sapiens, T98G): 20.1 ± 0.67 µM; IC50 [6]: > 100 µM
CC(C)(C)n1c(=O)n(-c2ccc(Cl)cc2)c2c(N)nccc21 [Compound 1f, 4-amino-1-(tert-butyl)-3-(4-chlorophenyl)-1H-imidazo[4,5-c]pyridin-2(3H)-one]	84	62	–
CC(C)Cn1c(=O)n(-c2ccc(Cl)cc2)c2c(N)nccc21 [Compound 1g, 4-amino-3-(4-chlorophenyl)-1-isobutyl-1H-imidazo[4,5-c]pyridin-2(3H)-one]	16	19	–
CC(C)(C)n1nc(-c2ccc(Cl)cc2)c2c(N)ncnc21 [PP2, reference compound]	93	–	IC50 [3]: 39.9 ± 6.91 µM; IC50 ([4]; Homo sapiens, U-251, 72 h): 21.1 ± 2.16 µM; IC50 ([5]; Homo sapiens, T98G): 12.5 ± 2.37 µM

Further lines, with some results ahead:

inhibition at 1 µM [1] [%]	inhibition at 1 µM [2] [%]	Compound	also measured
18	19	CN(C)CCn1c(=O)n(-c2ccc(Cl)cc2)c2c(N)nccc21 [Compound 1h, 4-amino-3-(4-chlorophenyl)-1-(2-(dimethylamino)ethyl)-1H-imidazo[4,5-c]pyridin-2(3H)-one]	–
65	24	COCCn1c(=O)n(-c2ccc(Cl)cc2)c2c(N)nccc21 [Compound 1i, 4-amino-3-(4-chlorophenyl)-1-(2-methoxyethyl)-1H-imidazo[4,5-c]pyridin-2(3H)-one]	–
5	12	Nc1nccc2c1n(-c1ccc(Cl)cc1)c(=O)n2CCN1CCOCC1 [Compound 1j, 4-amino-3-(4-chlorophenyl)-1-(2-morpholinoethyl)-1H-imidazo[4,5-c]pyridin-2(3H)-one]	–
88	65	Cc1ccc(-n2c(=O)n(C3CCCC3)c3ccnc(N)c32)cc1 [Compound 1k, 4-amino-1-cyclopentyl-3-(p-tolyl)-1,3-dihydro-2H-imidazo[4,5-c]pyridin-2-one]	–
91	28	COc1ccc(-n2c(=O)n(C3CCCC3)c3ccnc(N)c32)cc1 [Compound 1l, 4-amino-1-cyclopentyl-3-(4-methoxyphenyl)-1,3-dihydro-2H-imidazo[4,5-c]pyridin-2-one]	–
11	-2	Nc1nccc2c1n(-c1ccc(C(F)(F)F)cc1)c(=O)n2C1CCCC1 [Compound 1m, 4-amino-1-cyclopentyl-3-(4-(trifluoromethyl)phenyl)-1,3-dihydro-2H-imidazo[4,5-c]pyridin-2-one]	–
45	44	N#Cc1ccc(-n2c(=O)n(C3CCCC3)c3ccnc(N)c32)cc1 [Compound 1n, 4-(4-amino-1-cyclopentyl-2-oxo-1,2-dihydro-3H-imidazo[4,5-c]pyridin-3-yl)benzonitrile]	–
19	20	Nc1nccc2c1n(-c1ccc(CO)cc1)c(=O)n2C1CCCC1 [Compound 1o, 4-amino-1-cyclopentyl-3-(4-(hydroxymethyl)phenyl)-1,3-dihydro-2H-imidazo[4,5-c]pyridin-2-one]	–
66	19	Nc1nccc2c1n(-c1cccc(F)c1)c(=O)n2C1CCCC1 [Compound 1p, 4-amino-1-cyclopentyl-3-(3-fluorophenyl)-1,3-dihydro-2H-imidazo[4,5-c]pyridin-2-one]	–
85	74	Nc1nccc2c1n(-c1ccc3c(c1)OCO3)c(=O)n2C1CCCC1 [Compound 1q, 4-amino-3-(benzo[d][1,3]dioxol-5-yl)-1-cyclopentyl-1H-imidazo[4,5-c]pyridin-2(3H)-one]	IC50 [1]: 220 nM; IC50 [2]: 730 nM; IC50 [3]: 47 ± 3.78 µM; IC50 ([4]; Homo sapiens, U-251, 72 h): 30 ± 0.93 µM; IC50 ([5]; Homo sapiens, T98G): 20.7 ± 0.67 µM; IC50 [6]: 69 ± 8.39 µM
84	30	Nc1nccc2c1n(-c1ccc3[nH]ccc3c1)c(=O)n2C1CCCC1 [Compound 1r, 4-amino-1-cyclopentyl-3-(1H-indol-5-yl)-1,3-dihydro-2H-imidazo[4,5-c]pyridin-2-one]	–
93	90	Nc1nccc2c1n(-c1ccc(Oc3ccccc3)cc1)c(=O)n2C1CCCC1 [Compound 1s, 4-amino-1-cyclopentyl-3-(4-phenoxyphenyl)-1,3-dihydro-2H-imidazo[4,5-c]pyridin-2-one]	IC50 [1]: 150 nM; IC50 [2]: 210 nM; IC50 [3]: 30.3 ± 0.84 µM; IC50 ([4]; 72 h): 24.6 ± 2.28 µM; IC50 ([4]; Homo sapiens, U-251, 72 h): 24.6 µM; IC50 [5]: 16.4 ± 2.12 µM; IC50 ([5]; Homo sapiens, T98G): 16.4 µM; IC50 [6]: 50.5 µM

From PMC8274516, “Identification of imidazo[4,5-c]pyridin-2-one derivatives as novel Src family kinase inhibitors against glioblastoma” (Journal of Enzyme Inhibition and Medicinal Chemistry, 2021)
